Source: PubChem BioAssay (NCI)
Where “and” joins values, the source holds several entries; their conditions need not be identical. Identical values can stand only once.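 Tested at 5 concentrations; 48 h exposure; 96-well plates; endpoints linearly interpolated, else capped at highest concentration. GI50 is the concentration that inhibits growth by half. At the TGI there is no net growth.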

How the values were obtained:
Assay in all cases: growth of human tumour cells (NCI), 48 h
MOLT-4 leukemia = system: MOLT-4 leukemia
RPMI-8226 leukemia = system: RPMI-8226 leukemia
SW-620 colon = system: SW-620 colon
DMS 273 small cell lung = system: DMS 273 small cell lung
HS 578T breast = system: HS 578T breast
SF-539 CNS = system: SF-539 CNS
KM20L2 colon = system: KM20L2 colon
BT-549 breast = system: BT-549 breast
MDA-MB-435 = system: MDA-MB-435
NCI-H226 lung = system: NCI-H226 lung

| Compound | TGI (MOLT-4 leukemia) [µM] | TGI (RPMI-8226 leukemia) [µM] | TGI (SW-620 colon) [µM] | TGI (DMS 273 small cell lung) [µM] | TGI (HS 578T breast) | TGI (SF-539 CNS) [µM] | TGI (KM20L2 colon) [µM] | TGI (BT-549 breast) [µM] | TGI (MDA-MB-435) [µM] | TGI (NCI-H226 lung) [µM] | GI50 (MOLT-4 leukemia) [µM] | GI50 (RPMI-8226 leukemia) [µM] | GI50 (SW-620 colon) [µM] | GI50 (DMS 273 small cell lung) [nM] | GI50 (HS 578T breast) [µM] | GI50 (SF-539 CNS) [µM] | GI50 (KM20L2 colon) [pM] | GI50 (BT-549 breast) [µM] | GI50 (NCI-H226 lung) [µM] |
| --- | --- | --- | --- | --- | --- | --- | --- | --- | --- | --- | --- | --- | --- | --- | --- | --- | --- | --- | --- |
| CC(C)Cc1ccc(C(C)/C=C2\CCC(CN3CCCCC3)C2=O)cc1 (configuration not stated) | 5.7 | 6.65 | 13.4 | 7.2 | 45.6 µM | 11.4 | 29.1 | 34.4 | 28.2 | 32.2 |  |  |  |  |  |  |  |  |  |
| CSC1SCC2C(=O)N(C)C(C(C)C)C(=O)OCC(NC(=O)c3cnc4ccccc4n3)C(=O)NC(C)C(=O)N(C)C1C(=O)N(C)C(C(C)C)C(=O)OCC(NC(=O)c1cnc3ccccc3n1)C(=O)NC(C)C(=O)N2C (configuration not stated) |  |  |  |  | 0.00282 µM and 0.00359 µM |  |  | 0.0158 |  |  | < 0.001 | < 0.001 | < 0.001 | 0.04 | < 0.001 | < 0.001 | 5.29 | < 0.001 | 0.00325 |
| CCOC(=O)NC(=O)c1cn(C2OC(COC(=O)CCCCCCCCC(=O)OCC3OC(n4cc(C(=O)NC(=O)OCC)c(=O)[nH]c4=O)C4OC(C)(C)OC34)C3OC(C)(C)OC32)c(=O)[nH]c1=O (configuration not stated) | > 100 | > 100 | > 100 | > 100 |  | > 100 | > 100 |  |  | > 100 |  |  |  |  |  |  |  |  |  |
| [N-]=[N+]=NC1C2CC3CC(C2)CC1C3 (configuration not stated) | > 100 | > 100 | > 100 | > 100 |  | > 100 | > 100 |  |  | > 100 |  |  |  |  |  |  |  |  |  |
| Cc1nc(-n2nc(-c3ccccc3)cc2-c2ccccc2)sc1C(=O)/C=C/c1ccc(Cl)cc1 | 41 | 26.7 | 61.1 | > 100 |  | 27.4 | 77.6 |  |  | 42.1 |  |  |  |  |  |  |  |  |  |
| CCN(CC)CCC(=O)N1C/C(=C/c2ccccc2)C(=O)/C(=C\c2ccccc2)C1 | 1.33 | 0.568 | 0.629 | 3.15 | 2.21 µM | 10.8 | 3.5 | 1.81 | 5.5 | 13.7 |  |  |  |  |  |  |  |  |  |
